These results are taken from US10570118B2, “Isoquinolones as BTK inhibitors” (Boehringer Ingelheim International GmbH, priority 2016, dated 2020).

Assay [1] deals with human full length His-tagged BTK (Homo sapiens (Human), UniProt Q06187). Nature of the assay: BTK Lanthscreen Eu Kinase Binding assay. The note with it: TR-FRET tracer displacement, 2 nM BTK, 30 min pre-incubation. The method, then:
BTK Lanthscreen® Eu Kinase Binding assay:
A Lanthscreen® Eu Kinase Binding assay (Life Technologies) was performed to quantitate the ability of test compounds to bind to BTK. The assay is based on the binding and displacement of Alexa Fluor647-labeled Kinase Tracer #236 to the ATP-binding site of human full length His-tagged BTK (Life Technologies cat # PV3587) with TR-FRET detection using a europium-labeled anti-His antibody. The assay was assembled in 384-well low volume NBS black plates (Corning) where 2 nM BTK and test compound in DMSO at varying concentrations were pre-incubated for 30 min at 28° C. in assay buffer consisting of 50 mM HEPES, pH 7.4, 10 mM MgCl2, 1 mM EGTA. 100 μM Na3VO4 and 0.01% Brij 35. Then, 2 nM of Eu-anti His antibody and 30 nM Kinase Tracer were added and incubated for […] at 28° C. Following incubation, TR-FRET signal was read on an Envision plate reader (Excitation: 340 nm; Emissions: 615 and 665 nm). The 665: 615 nm emission ratio was calculated and converted to POC compared to control and blank wells.
In general terms: In TR-FRET formats the signal depends on donor and acceptor labels being close together.

For the next assay, the target named is BTK (Homo sapiens (Human), UniProt Q06187). Nature of the assay: Inhibition of IL-6 production in B cells co-stimulated with ODN 2006 and anti-hIgD. Type of assay: cell-based. The following applies: primary CD19+ B cells, anti-human IgD + ODN 2006 stimulation, 18-24 hours; read-out: B-cell IL-6 IC50. On the procedure:
Inhibition of IL-6 Production in B Cells Co-Stimulated with ODN 2006 and Anti-hIgD
Primary CD19+ B cells (AllCells # PB010F) are thawed and plated in RPMI containing 10% HI FBS in a 384-well tissue cultured plate at 20,000 cells/well. The cells are treated with test compound (0.5% DMSO final concentration) and incubated for 1 hour at 37° C., 5% CO2. Cells are then stimulated with 5 μg/mL Goat F(ab′)2 anti-human IgD (SouthernBiotech #2032) and 2 uM ODN 2006 (InvivoGen # till-2006) and incubated for 18-24 hours at 37° C., 5% CO2. IL-6 in the supernatant is measured using Meso Scale Discovery kit # K211AKB-6.
(§1) The compounds described herein show a range of selectivity against EGFR as measured in cellular assays (BTK activity measured by IL-6 production in primary CD19^+ cells; EGFR activity measured by EGFR phosphorylation in A431 cells).

For a further assay, the target named is EGFR (Homo sapiens (Human), UniProt P00533). The experiment in a line: Inhibition of EGFR autophosphorylation in A431 human epithelial cells stimulated with epithelial growth factor. It is filed as cell-based. The following applies: 16 hours compound, EGF 60 ng/mL 10 minutes, read-out: A431 p-EGFR IC50. On the procedure: Inhibition of EGFR Autophosphorylation in A431 Human Epithelial Cells Stimulated with Epithelial Growth Factor
A431 cells (ATCC # CRL-1555 FZ) are thawed and plated in DMEM containing 10% FBS in a 384-well tissue culture treated plate at 15,000 cells/well. After incubating for 24 hours at 37° C., 5% CO2, the cells are treated with test compound (1% DMSO final concentration) and incubated for 16 hours at 37° C., 5% CO2. EGF (Millipore, 01-107) is added at a final concentration of 60 ng/mL and incubated for 10 minutes. The medium is removed, the cells are lysed, and phospho EGFR is measured (Meso Scale Diagnostics, N31CB-1).
as §1

Each structure is given as a SMILES string.

EGFR, sequence (P00533 25-1210): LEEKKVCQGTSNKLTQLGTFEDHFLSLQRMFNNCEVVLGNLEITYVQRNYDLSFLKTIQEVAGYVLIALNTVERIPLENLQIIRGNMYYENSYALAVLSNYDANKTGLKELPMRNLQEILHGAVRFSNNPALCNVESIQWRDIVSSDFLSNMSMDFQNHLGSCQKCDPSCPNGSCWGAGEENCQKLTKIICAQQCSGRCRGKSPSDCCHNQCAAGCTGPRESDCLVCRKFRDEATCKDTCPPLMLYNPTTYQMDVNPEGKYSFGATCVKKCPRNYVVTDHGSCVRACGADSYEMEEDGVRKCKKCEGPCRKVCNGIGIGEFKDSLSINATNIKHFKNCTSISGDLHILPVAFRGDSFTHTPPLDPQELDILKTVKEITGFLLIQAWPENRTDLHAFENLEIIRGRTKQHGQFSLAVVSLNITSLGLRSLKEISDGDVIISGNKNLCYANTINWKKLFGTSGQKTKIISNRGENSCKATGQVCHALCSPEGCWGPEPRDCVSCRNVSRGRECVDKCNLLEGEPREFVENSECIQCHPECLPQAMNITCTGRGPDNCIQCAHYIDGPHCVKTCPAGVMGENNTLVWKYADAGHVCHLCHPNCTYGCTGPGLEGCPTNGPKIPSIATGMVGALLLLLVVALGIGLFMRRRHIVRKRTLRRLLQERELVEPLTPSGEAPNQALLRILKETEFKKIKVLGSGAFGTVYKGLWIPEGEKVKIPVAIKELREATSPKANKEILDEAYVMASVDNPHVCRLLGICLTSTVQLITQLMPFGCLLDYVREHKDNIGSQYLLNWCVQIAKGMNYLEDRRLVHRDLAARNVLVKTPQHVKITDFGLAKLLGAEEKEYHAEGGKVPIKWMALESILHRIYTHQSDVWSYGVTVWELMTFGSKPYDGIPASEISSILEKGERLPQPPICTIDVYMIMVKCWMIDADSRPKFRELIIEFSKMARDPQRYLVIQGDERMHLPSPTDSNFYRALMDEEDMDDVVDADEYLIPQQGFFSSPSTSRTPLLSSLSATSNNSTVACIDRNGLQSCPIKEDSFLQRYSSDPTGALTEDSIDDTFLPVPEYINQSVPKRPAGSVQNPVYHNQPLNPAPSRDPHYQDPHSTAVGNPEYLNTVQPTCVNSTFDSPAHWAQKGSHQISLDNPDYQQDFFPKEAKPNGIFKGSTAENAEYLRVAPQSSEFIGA
BTK, sequence (Q06187 whole entry): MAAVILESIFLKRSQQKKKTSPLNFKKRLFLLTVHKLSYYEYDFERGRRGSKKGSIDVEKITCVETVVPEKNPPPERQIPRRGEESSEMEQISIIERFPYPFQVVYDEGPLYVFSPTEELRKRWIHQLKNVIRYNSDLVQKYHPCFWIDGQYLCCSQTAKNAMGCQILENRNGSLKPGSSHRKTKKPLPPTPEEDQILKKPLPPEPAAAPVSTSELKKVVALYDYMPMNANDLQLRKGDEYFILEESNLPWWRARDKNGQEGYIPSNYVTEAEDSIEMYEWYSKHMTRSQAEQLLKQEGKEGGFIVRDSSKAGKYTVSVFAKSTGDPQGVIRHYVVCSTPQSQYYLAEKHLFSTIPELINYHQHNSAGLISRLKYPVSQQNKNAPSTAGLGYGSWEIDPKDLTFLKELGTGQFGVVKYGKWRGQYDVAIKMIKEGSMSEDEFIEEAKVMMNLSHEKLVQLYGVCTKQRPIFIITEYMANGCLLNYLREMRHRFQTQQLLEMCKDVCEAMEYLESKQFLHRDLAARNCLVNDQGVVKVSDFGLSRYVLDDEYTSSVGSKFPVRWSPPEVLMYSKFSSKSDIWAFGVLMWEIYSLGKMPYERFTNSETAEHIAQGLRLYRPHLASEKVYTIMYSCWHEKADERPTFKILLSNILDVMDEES
human full length His-tagged BTK, sequence (Q06187 whole entry): as above

Consider `C=CC(=O)N1CC(c2cc3cc(C4CC4)ccc3c(=O)n2-c2cccc(-c3cc(C(N)=O)n(C)c3)c2CO)C1` (single isomer, unassigned) [Example 42], for which, in assay [1], the IC50 (usually the midpoint of a concentration-inhibition curve) came out at 560 nM. In the case of `C=CC(=O)N1CC(c2cc3cc(C4CC4)ccc3c(=O)n2-c2cccc(-c3cc(C(N)=O)n(C)c3)c2CO)C1` (single isomer, unassigned) [Example 43], the figures for the IC50 (at BTK; in assay [1]; on EGFR) were 3.6 nM, 0.56 nM and over 10000 nM, respectively. The like results for `Cn1cc(-c2cccc(-n3c(C4CN(C#N)C4)cc4cc(C5CC5)ccc4c3=O)c2CO)cc1C(N)=O` [Example 1] were, in that order, 4.3 nM, 0.7 nM and 4700 nM. The like results for `C=CC(=O)N1CC(Cc2cc3cc(C4CC4)ccc3c(=O)n2-c2cccc(-c3cc(C(N)=O)n(C)c3)c2CO)C1` [Example 2] were, in that order, 36 nM, 4 nM and over 10000 nM. Molecule `N#CN1CC(c2cc3cc(C4CC4)ccc3c(=O)n2-c2cccc(-c3ccc4[nH]ncc4c3)c2CO)C1` [Example 3] had an IC50 in assay [1] of 1.9 nM.

Turning to `N#CN1CC(c2cc3cc(C4CC4)ccc3c(=O)n2-c2cccc(-c3cccc(C(N)=O)c3)c2CO)C1` [Example 4], the IC50 in assay [1] is 5 nM. Consider `C=CC(=O)N1CC(c2cc3cc(C4CC4)ccc3c(=O)n2-c2cccc(-c3cccc(C(N)=O)c3)c2CO)C1` [Example 5], for which the IC50 was 100 nM on BTK, 5.2 nM in assay [1] and over 10000 nM on EGFR. Turning to `C=CC(=O)N1CCC1Cc1cc2cc(C3CC3)ccc2c(=O)n1-c1cccc(-c2cc(C(N)=O)n(C)c2)c1CO` (stereo not shown) [Example 6], the values for the IC50 (on BTK; in assay [1]; on EGFR) were 16 nM, 3.9 nM and 4500 nM, respectively. On to `C=CC(=O)N1CC(c2cc3cc(C4CC4)ccc3c(=O)n2-c2cccc(-c3cc(C(N)=O)n(C)c3)c2CO)C1` [Example 7], for which the IC50 at BTK was 5.6 nM; in assay [1], 0.7 nM; at EGFR, over 10000 nM. Regarding `CC#CC(=O)N1CC(Cc2cc3cc(C4CC4)ccc3c(=O)n2-c2cccc(-c3cc(C(N)=O)n(C)c3)c2CO)C1` [Example 8], the IC50 was 96 nM at BTK, 11 nM in assay [1] and over 10000 nM at EGFR. `Cn1cc(-c2cccc(-n3c(C4CN(C#N)C4)cc4cc(C5CC5)ccc4c3=O)c2CO)cc(N)c1=O` [Example 9]: in assay [1], the concentration for half-maximal inhibition (IC50) was found to be 2.6 nM. Regarding `C=CC(=O)N1CC(c2cc3cc(C4CC4)ccc3c(=O)n2-c2cccc(-c3cc(N)c(=O)n(C)c3)c2CO)C1` [Example 11], the IC50 was 21 nM at BTK, 1.9 nM in assay [1] and over 10000 nM at EGFR. Taken in the same sequence, the figures for `N#CN1CC(c2cc3cc(C4CC4)ccc3c(=O)n2-c2cccc(-c3cc(N)ncn3)c2CO)C1` [Example 12] were 28 nM, 3.3 nM and 4500 nM. In the case of `C=CC(=O)N1CCC(c2cc3cc(C4CC4)ccc3c(=O)n2-c2cccc(-c3cc(C(N)=O)n(C)c3)c2CO)C1` (stereo not shown) [Example 13], the IC50 at BTK is 12 nM; in assay [1], 2.4 nM; at EGFR it was over 10000 nM.

Turning to `C=CC(=O)N1CC(Cc2cc3cc(C4CC4)ccc3c(=O)n2-c2cccc(-c3cc(N)ncn3)c2CO)C1` [Example 14], the IC50 at BTK is 85 nM; in assay [1], 19 nM; at EGFR, over 10000 nM. Consider `C=CC(=O)N1CC(c2cc3cc(C4CC4)ccc3c(=O)n2-c2cccc(-c3ccnc(NC)c3)c2CO)C1` [Example 15], for which the IC50 was 8.8 nM on BTK, 4.2 nM in assay [1] and over 10000 nM at EGFR. As to `C=CC(=O)N1CCC(c2cc3cc(C4CC4)ccc3c(=O)n2-c2cccc(-c3cc(N)c(=O)n(C)c3)c2CO)C1` (stereo not shown) [Example 16], the IC50 at BTK is 92 nM; in assay [1], 20 nM; on EGFR, over 10000 nM. In the case of `C=CC(=O)N1CC(c2cc3cc(C4CC4)ccc3c(=O)n2-c2cccc(-c3ccnc(N)c3)c2CO)C1` [Example 17], the results for the IC50 at BTK and at EGFR were 3.7 nM and over 10000 nM, respectively. Take `C=CC(=O)N(C)Cc1cc2cc(C3CC3)ccc2c(=O)n1-c1cccc(-c2cc(C(N)=O)n(C)c2)c1CO` [Example 18]: the values for the IC50 (on BTK; in assay [1]; on EGFR) were 160 nM, 59 nM and over 10000 nM, respectively. `CC#CC(=O)N1CC(c2cc3cc(C4CC4)ccc3c(=O)n2-c2cccc(-c3cc(C(N)=O)n(C)c3)c2CO)C1` [Example 19] yielded an IC50 in assay [1] of 64 nM. With `C=CC(=O)N1CC(c2cc3cc(C4CC4)ccc3c(=O)n2-c2cccc(-c3ccnc(N)c3)c2Cl)C1` [Example 20], the IC50 is 37 nM on BTK, 8.9 nM in assay [1] and 3200 nM on EGFR. Taken in the same sequence, the figures for `C=CC(=O)N1CC(c2cc3cc(C4CC4)ccc3c(=O)n2-c2cccc(-c3cc(N)ncn3)c2CO)C1` [Example 21] were 1.9 nM, 0.48 nM and over 10000 nM. `C=CC(=O)N1CCC(c2cc3cc(C4CC4)ccc3c(=O)n2-c2cccc(-c3ccncc3)c2CO)C1` (stereo not shown) [Example 22]: the IC50 in assay [1] was determined as 37 nM. The same measure, in the same setting: for `C=CC(=O)N(C)Cc1cc2cc(C3CC3)ccc2c(=O)n1-c1cccc(-c2ccnc(N)c2)c1CO` [Example 23] the value was 120 nM; for `C=CC(=O)N(C)Cc1cc2cc(C3CC3)ccc2c(=O)n1-c1cccc(-c2cc(N)c(=O)n(C)c2)c1CO` [Example 24], 140 nM; for `C=CC(=O)N1CCC(c2cc3cc(C4CC4)ccc3c(=O)n2-c2cccc(-c3ccn4cncc4c3)c2CO)C1` (stereo not shown) [Example 25], 160 nM. `C/C=C/C(=O)N1CC(c2cc3cc(C4CC4)ccc3c(=O)n2-c2cccc(-c3cc(C(N)=O)n(C)c3)c2CO)C1` [Example 26] registered an IC50 in assay [1] of 230 nM. Still for that read-out and setting: under `C=CC(=O)N1CC(Cc2cc3cc(C4CC4)ccc3c(=O)n2-c2cccc(-c3ccc4cncn4c3)c2CO)C1` [Example 27] stands 310 nM; under `CC#CC(=O)N1CC(c2cc3cc(C4CC4)ccc3c(=O)n2-c2cccc(-c3cc(N)c(=O)n(C)c3)c2CO)C1` [Example 28], 310 nM; under `C/C=C/C(=O)N1CC(c2cc3cc(C4CC4)ccc3c(=O)n2-c2cccc(-c3ccnc(NC)c3)c2CO)C1` [Example 29], 440 nM. Same read-out and setting: under `CC#CC(=O)N1CC(c2cc3cc(C4CC4)ccc3c(=O)n2-c2cccc(-c3ccc4[nH]ncc4c3)c2CO)C1` [Example 30] stands 450 nM; under `Cn1cc(-c2cccc(-n3c(C4CCN(C#N)C4)cc4cc(C5CC5)ccc4c3=O)c2CO)cc(N)c1=O` (stereo not shown) [Example 31], 480 nM; under `CN(C#N)Cc1cc2cc(C3CC3)ccc2c(=O)n1-c1cccc(-c2cc(N)c(=O)n(C)c2)c1CO` [Example 32], 490 nM.

In turn, `C=CC(=O)N1CC(Cc2cc3cc(C4CC4)ccc3c(=O)n2-c2cccc(-c3ccnc(NC)c3)c2CO)C1` [Example 33] gave an IC50 in assay [1] of 510 nM. Same read-out and setting: under `CC#CC(=O)N(C)Cc1cc2cc(C3CC3)ccc2c(=O)n1-c1cccc(-c2cc(C(N)=O)n(C)c2)c1CO` [Example 34] stands 530 nM; under `CC#CC(=O)N1CC(c2cc3cc(C4CC4)ccc3c(=O)n2-c2cccc(-c3ccnc(NC)c3)c2CO)C1` [Example 35], 530 nM.

Turning to `C=CC(=O)N(C)Cc1cc2cc(C3CC3)ccc2c(=O)n1-c1cccc(-c2cccc(C(N)=O)c2)c1CO` [Example 36], the IC50 in assay [1] worked out at 580 nM. Turning to `C=CC(=O)N1CCC(c2cc3cc(C4CC4)ccc3c(=O)n2-c2cccc(-c3ccnc(N)c3F)c2CO)C1` (stereo not shown) [Example 37], the IC50 in assay [1] came to 620 nM. Still for that read-out and setting: for `C=CC(=O)N1CC(Cc2cc3cc(C4CC4)cc(OC)c3c(=O)n2-c2cccc(-c3cc(C(N)=O)n(C)c3)c2CO)C1` [Example 38] the value was 250 nM; for `C=CC(=O)N1CC(Cc2cc3cc(C4CC4)cc(F)c3c(=O)n2-c2cccc(-c3cc(C(N)=O)n(C)c3)c2CO)C1` [Example 41], 0.71 nM.
